# Data as given in US20250206776A1, “ENZYME-INSTRUCTED SELF-ASSEMBLY OF PEPTIDES CONTAINING N-TERMINAL PHOSPHO-AROMATIC CAPPING MOTIF, AND USES THEREOF” (BRANDEIS UNIVERSITY, priority 2021, published 2025).
# Tests used:
# SJSA1 cells = test: MTT assay, SJSA1 cells; type: cell-based, human; conditions: SJSA1, 2 h, presence or absence of DQB (20 μM)
# Method: (§1) Cell Culture: Saos2, SJSA1 and HepG2 cells were purchased from American Type Culture Collection (ATCC, USA). Saos2 cells were cultured in McCoy's 5A Medium (Gibco, Life Technologies) supplemented with 15% (v/v) fetal bovine serum (FBS) (Gibco, Life Technologies), 100 U/mL penicillin and 100 µg/mL streptomycin (Gibco, Life Technologies); SJSA1 cell were culture in RPMI1640 (ATCC, USA) Medium supplemented with 10% (v/v) FBS, 100 U/mL penicillin and 100 µg/mL streptomycin; HepG2 cells were cultured in Minimal Essential Medium (MEM) (Gibco, Life Technologies) supplemented with 10% (v/v) FBS, 100 U/mL penicillin and 100 µg/mL streptomycin. All the cells were maintained at 37° C. in a humidified atmosphere of 5% CO2.
# MTT Assay: Cells were seeded in 96-well plates at 1×10^4 cells/well for 24 hours to allow attachment. After removing the culture medium, fresh culture medium containing different concentration of the precursors were added. […] 100 μL of SDS-HCl solution was then added to stop the reduction reaction and dissolve the formazan. The absorbance of each well at 595 nm was measured by a DTX880 Multimode Detector. The results were calculated as cell viability percentage relative to untreated cells. The MTT assay was performed in triplet (n=3) and the average value of the three measurements was taken. […]
# Saos2 cells = test: MTT assay, Saos2 cells; type: cell-based, human; conditions: Saos2, 2 h, presence or absence of DQB (20 μM)
# Method: as §1
# MTT Assay: Cells were seeded in 96-well plates at 1×10^4 cells/well for 24 hours to allow attachment. After removing the culture medium, fresh culture medium containing different concentration of the precursors were added. After 24/48/72 hours, 10 μL MTT (ACROS Organics) solution (5 mg/mL) was added to each well to incubate at 37° C. for 4 h. 100 μL of SDS-HCl solution was then added to stop the reduction reaction and dissolve the formazan. The absorbance of each well at 595 nm was measured by a DTX880 Multimode Detector. The results were calculated as cell viability percentage relative to untreated cells. […]
# [1] = hydrophobicity of the aromatic group; cited from earlier work
# [2] = Solubility in PBS buffer / water; type: physicochemical; conditions: compared with 6
smiles,measurement,setting,value
COC(=O)CC[C@@H](NC(=O)[C@@H](Cc1ccccc1)NC(=O)[C@@H](Cc1ccccc1)NC(=O)c1ccc(-c2ccc(OP(=O)(O)O)cc2)cc1)C(=O)OC [9P],cytotoxicity compared to 10P (cell viability),SJSA1 cells,higher cytotoxicity
same,cytotoxicity compared to 10P (cell viability),Saos2 cells,higher cytotoxicity
c1ccc(-c2ccccc2)cc1 [biphenyl],log P,[1],3.71
"O=C(N[C@H](Cc1ccccc1)C(=O)N[C@H](Cc1ccccc1)C(=O)O)c1ccc(O)cc1 [compound 2, B-ff]",relative water solubility,[2],more water soluble than 6
"O=C(N[C@H](Cc1ccccc1)C(=O)N[C@H](Cc1ccccc1)C(=O)O)c1ccc2cc(O)ccc2c1 [compound 4, NP-ff]",relative water solubility,[2],more water soluble than 6
